Experimental data as given in patent US11535621B2, “Heterobicyclic amides as inhibitors of CD38” (Ribon Therapeutics, Inc., priority 2019, dated 2022).

Biological target: Human CD38 (Homo sapiens (Human), UniProt P28907)
Assay: CD38 enzyme assay
Format: biochemical
Conditions: 2 nM CD38, NAD+ substrate, absorbance at 405 nm
Procedure, shortened: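 IC50 values come from fitting % inhibition against compound concentration with a 4-parameter logistic, or a 3-parameter fit with top/bottom fixed at 100/0 or Hill at 1. Inhibition is scaled between DMSO wells and positive-control wells treated with a quinolinone CD38 inhibitor.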

Sequence of Human CD38 (P28907 whole entry): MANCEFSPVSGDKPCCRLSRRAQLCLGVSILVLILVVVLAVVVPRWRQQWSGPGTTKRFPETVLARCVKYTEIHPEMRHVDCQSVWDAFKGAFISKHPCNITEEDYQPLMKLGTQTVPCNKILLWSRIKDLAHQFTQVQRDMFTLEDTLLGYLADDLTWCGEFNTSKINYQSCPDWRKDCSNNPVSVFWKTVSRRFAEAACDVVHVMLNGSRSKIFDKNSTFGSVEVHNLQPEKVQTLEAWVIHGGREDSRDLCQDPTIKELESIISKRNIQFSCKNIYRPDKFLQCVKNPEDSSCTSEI

| SMILES | IC50 |
| --- | --- |
| O=C(N[C@H]1CC[C@H](NCC(F)(F)F)CC1)c1nc(-n2ccnc2)cc2cn[nH]c12 [Example 115, 5-(1H-imidazol-1-yl)-N-((1r,4r)-4-((2,2,2-trifluoroethyl)amino)cyclohexyl)-1H-pyrazolo[3,4-c]pyridine-7-carboxamide] | 10 to 100 nM |
| CN1CCC(NC(=O)c2nc(-n3ccnc3)nc3cc[nH]c23)CC1 [Example 60, 2-(1H-Imidazol-1-yl)-N-(1-methylpiperidin-4-yl)-5H-pyrrolo[3,2-d]pyrimidine-4-carboxamide] | > 1000 nM |
| CC1(C#N)CN([C@H]2CC[C@H](NC(=O)c3nc(-n4ccnc4)cc4cn[nH]c34)CC2)C1 [Example 258, N-((1r,4r)-4-(3-cyano-3-methylazetidin-1-yl)cyclohexyl)-5-(1H-imidazol-1-yl)-1H-pyrazolo[3,4-c]pyridine-7-carboxamide] | 10 to 100 nM |
| C[C@H](O)[C@H]1CC[C@H](NC(=O)c2nc(-n3ccnc3)cc3cn[nH]c23)CC1 [Example 192a, N-((1S,4r)-4-((S)-1-hydroxyethyl)cyclohexyl)-5-(1H-imidazol-1-yl)-1H-pyrazolo[3,4-c]pyridine-7-carboxamide] | < 10 nM |
| O=C(N[C@H]1CC[C@H](NCC(F)(F)F)CC1)c1nc(-n2ccnc2)nc2cn[nH]c12 [Example 191, 5-(1H-imidazol-1-yl)-N-((1r,4r)-4-((2,2,2-trifluoroethyl)amino)cyclohexyl)-1H-pyrazolo[4,3-d]pyrimidine-7-carboxamide] | 10 to 100 nM |
| CC(C)(N[C@H]1CC[C@@H](NC(=O)c2nc(-n3ccnc3)cc3cn[nH]c23)CC1)C(F)F [Example 254, N-((1s,4s)-4-((1,1-difluoro-2-methylpropan-2-yl)amino)cyclohexyl)-5-(1H-imidazol-1-yl)-1H-pyrazolo[3,4-c]pyridine-7-carboxamide] | 100 to 1000 nM |
| COCCN1CCc2cc(NC(=O)c3nc(-n4ccnc4)nc4cc[nH]c34)ccc2C1 [Example 179] | 10 to 100 nM |
| COCCO[C@H]1C[C@H](NC(=O)c2nc(-n3ccnc3)nc3cc[nH]c23)C1 [Example 65, 2-(1H-Imidazol-1-yl)-N-((1r,3r)-3-(2-methoxyethoxy)cyclobutyl)-5H-pyrrolo[3,2-d]pyrimidine-4-carboxamide] | 10 to 100 nM |
| O=C(N[C@H]1CC[C@H](N2CCC(F)(F)C2)CC1)c1nc(-n2ccnc2)cc2cn[nH]c12 [Example 232, N-((1r,4r)-4-(3,3-difluoropyrrolidin-1-yl)cyclohexyl)-5-(1H-imidazol-1-yl)-1H-pyrazolo[3,4-c]pyridine-7-carboxamide] | 10 to 100 nM |
| COCCN1CCC(NC(=O)c2nc(-n3ccnc3)nc3cc[nH]c23)CC1 [Example 53, 2-(1H-Imidazol-1-yl)-N-(1-(2-methoxyethyl)piperidin-4-yl)-5H-pyrrolo[3,2-d]pyrimidine-4-carboxamide] | 100 to 1000 nM |
| O=C(N[C@H]1CC[C@H](C(F)(F)F)CC1)c1nc(-n2ccnc2)nc2nc[nH]c12 [Example 147] | 10 to 100 nM |
| COCCO[C@H]1CC[C@H](NC(=O)c2nc(-c3cncs3)nc3cc[nH]c23)CC1 [Example 32, N-((1r,4r)-4-(2-Methoxyethoxy)cyclohexyl)-2-(thiazol-5-yl)-5H-pyrrolo[3,2-d]pyrimidine-4-carboxamide] | 10 to 100 nM |
| O=C(N[C@@H]1CCNC[C@@H]1F)c1nc(-n2ccnc2)nc2cc[nH]c12 [Example 123a, N-((3S,4R)-3-fluoropiperidin-4-yl)-2-(1H-imidazol-1-yl)-5H-pyrrolo[3,2-d]pyrimidine-4-carboxamide] | 10 to 100 nM |

Results, then the compound that gave them:

| IC50 | SMILES |
| --- | --- |
| < 10 nM | CN(C)CC#Cc1ccc(NC(=O)c2nc(-n3ccnc3)nc3cc[nH]c23)cn1 [Example 190, N-(6-(3-(dimethylamino)prop-1-yn-1-yl)pyridin-3-yl)-2-(1H-imidazol-1-yl)-5H-pyrrolo[3,2-d]pyrimidine-4-carboxamide] |
| 10 to 100 nM | CS(=O)(=O)[C@H]1CC[C@H](NC(=O)c2nc(-n3ccnc3)nc3cc[nH]c23)CC1 [Example 213, 2-(1H-imidazol-1-yl)-N-((1r,4r)-4-(methylsulfonyl)cyclohexyl)-5H-pyrrolo[3,2-d]pyrimidine-4-carboxamide] |
| < 10 nM | Cn1cc(NC(=O)c2nc(-n3ccnc3)nc3cc[nH]c23)cn1 [Example 99, 2-(1H-Imidazol-1-yl)-N-(1-methyl-1H-pyrazol-4-yl)-5H-pyrrolo[3,2-d]pyrimidine-4-carboxamide] |
| < 10 nM | O=C(N[C@H]1CC[C@@H](C(F)(F)F)CC1)c1nc(-n2ccnc2)nc2ccsc12 [Example 122, 2-(1H-imidazol-1-yl)-N-((1s,4s)-4-(trifluoromethyl)cyclohexyl)thieno[3,2-d]pyrimidine-4-carboxamide] |
| 10 to 100 nM | O=C(N[C@H]1CC[C@H](NCCC(F)(F)F)CC1)c1nc(-n2ccnc2)cc2cn[nH]c12 [Example 189, 5-(1H-imidazol-1-yl)-N-((1r,4r)-4-((3,3,3-trifluoropropyl)amino)cyclohexyl)-1H-pyrazolo[3,4-c]pyridine-7-carboxamide] |
| < 10 nM | N#Cc1ccc(O[C@H]2CC[C@H](NC(=O)c3nc(-n4ccnc4)nc4cc[nH]c34)CC2)cc1 [Example 212, N-((1r,4r)-4-(4-cyanophenoxy)cyclohexyl)-2-(1H-imidazol-1-yl)-5H-pyrrolo[3,2-d]pyrimidine-4-carboxamide] |
| 10 to 100 nM | O=C(NCC1CCCCC1)c1nc(-n2ccnc2)nc2cc[nH]c12 [Example 78, N-(Cyclohexylmethyl)-2-(1H-imidazol-1-yl)-5H-pyrrolo[3,2-d]pyrimidine-4-carboxamide] |
| 10 to 100 nM | CC1(F)CN([C@H]2CC[C@H](NC(=O)c3nc(-n4ccnc4)nc4cn[nH]c34)CC2)C1 [Example 257, N-((1r,4r)-4-(3-fluoro-3-methylazetidin-1-yl)cyclohexyl)-5-(1H-imidazol-1-yl)-1H-pyrazolo[4,3-d]pyrimidine-7-carboxamide] |
| 10 to 100 nM | CC(F)(F)CN[C@H]1CC[C@H](NC(=O)c2nc(-n3ccnc3)cc3ccsc23)CC1 [Example 262, N-((1r,4r)-4-((2,2-difluoropropyl)amino)cyclohexyl)-5-(1H-imidazol-1-yl)thieno[2,3-c]pyridine-7-carboxamide] |
| < 10 nM | O=C(Nc1ccc(C(F)(F)F)nc1)c1nc(-n2ccnc2)cc2cn[nH]c12 [Example 229, 5-(1H-imidazol-1-yl)-N-(6-(trifluoromethyl)pyridin-3-yl)-1H-pyrazolo[3,4-c]pyridine-7-carboxamide] |
| < 10 nM | O=C(Nc1cncc(Cl)c1)c1nc(-n2ccnc2)nc2cc[nH]c12 [Example 141] |
| < 10 nM | O=C(N[C@H]1CC[C@H](CO)CC1)c1nc(-n2ccnc2)cc2cn[nH]c12 [Example 225, N-((1r,4r)-4-(hydroxymethyl)cyclohexyl)-5-(1H-imidazol-1-yl)-1H-pyrazolo[3,4-c]pyridine-7-carboxamide] |
| 10 to 100 nM | O=C(N[C@H]1CC[C@H](CNCC(F)(F)F)CC1)c1nc(-n2ccnc2)cc2cn[nH]c12 [Example 250, 5-(1H-imidazol-1-yl)-N-((1r,4r)-4-(((2,2,2-trifluoroethyl)amino)methyl)cyclohexyl)-1H-pyrazolo[3,4-c]pyridine-7-carboxamide] |
| < 10 nM | CO[C@H]1CC[C@H](NC(=O)c2nc(-n3ccnc3)nc3ccsc23)CC1 [Example 136] |
| < 10 nM | O=C(Nc1ccncn1)c1nc(-n2ccnc2)nc2cc[nH]c12 [Example 150] |
